According to patent US4889854A, “Tricyclic pyridone derivatives” (Hoffman-La Roche Inc., priority 1987, dated 1989):

Key:
[1] = tested on: spasmodic seizures caused by pentetrazole; assay: antipentetrazole test (oral administration, mice); assay type: in vivo; conditions: Mus musculus, 30 minutes before 120 mg/kg pentetrazole i.p., dosage which protects 50% of the animals, Probit method
Description: As mentioned earlier, the compounds of formula A have valuable pharmacological properties. In particular, they display pronounced muscle relaxant, sedative-hypnotic, anticonvulsive and/or anxiolytic properties and have only a low toxicity.
(§1) In this animal experiment, the compound under investigation is administered orally to mice and 30 minutes later they are administered intraperitoneally 120 mg/kg of pentetrazole, which causes emprosthotonus and tonic stretchings of the fore and/or hind limbs in unprotected animals, 1-4 minutes after the injection. Ten (10) experimental animals are used per dosage of test substance. After counting the protected experimental animals, the ED50 is determined according to the known Probit method. The ED50 is that dosage which protects 50% of the experimental animals from the spasmodic seizures caused by pentetrazole. The results which have been obtained with representative members of the class of compound defined by formula A in the experiment described previously are compiled in the following Table. Moreover, the Table contains data concerning the acute toxicity (LD50) of some of these compounds in mg/kg in the case of single oral administration to mice.

[2] = acute toxicity, single oral administration to mice; conditions: mouse, in vivo, single oral administration (p.o.)
Description: as §1

With `CN(C)C(=O)c1cc(-c2ccccc2)c(=O)n2c1-c1sccc1CN2` [H, 4,5-dihydro-N,N-dimethyl-7-oxo-8-phenyl-7H-pyrido[1,2-b]thieno[2,3-d]pyridazine-10-carboxamide] the ED50 [1] was 0.29 mg/kg and the LD50 [2] was over 5000 mg/kg.
`COC1CN(C(=O)c2cc(-c3ccccc3)c(=O)n3c2-c2cc(Cl)ccc2CN3)C1` [C, 1-[(10-chloro-6,7-dihydro-4-oxo-3-phenyl-4H-pyrido[2,1-a]phthalazin-1-yl)carbonyl]-3-methoxyazetidine] gave an ED50 [1] of 0.56 mg/kg.
Work on `COC1CN(C(=O)c2cc(-c3ccccc3)c(=O)n3c2-c2sccc2CN3C)C1` [G, 1-[(4,5-dihydro-5-methyl-7-oxo-8-phenyl-7H-pyrido[1,2-b]thieno[2,3-d]pyridazin-10-yl)carbonyl]-3-methoxyazetidine] yielded an ED50 [1] of 8.2 mg/kg and an LD50 [2] of over 5000 mg/kg.
In the case of `COC[C@H]1CCCN1C(=O)c1cc(-c2ccccc2)c(=O)n2c1-c1cc(Cl)ccc1CN2` [Compound B, (R)-1-[(10-chloro-6,7-dihydro-4-oxo-3-phenyl-4H-pyrido[2,1-a]phthalazin-1-yl)carbonyl]-2-(methoxymethyl)pyrrolidine], the ED50 [1] is reported as 0.44 mg/kg and the LD50 [2] is reported as over 3000 mg/kg.
In the case of `O=C(c1cc(-c2ccccc2)c(=O)n2c1-c1cc(Cl)ccc1CN2)N1CCOCC1` [Compound A, 4-[(10-chloro-6,7-dihydro-4-oxo-3-phenyl-4H-pyrido[2,1-a]phthalazin-1-yl)carbonyl]morpholine], the ED50 [1] is reported as 3.1 mg/kg and the LD50 [2] is reported as over 3000 mg/kg.
For `CN(C)C(=O)c1cc(-c2ccccc2)c(=O)n2c1-c1cc(Cl)ccc1CN2` [D, 10-chloro-6,7-dihydro-N,N-dimethyl-4-oxo-3-phenyl-4H-pyrido[2,1-a]-phthalazine-1-carboxamide], the ED50 [1] was 0.23 mg/kg.
For `CO[C@@H]1CCN(C(=O)c2cc(-c3ccccc3)c(=O)n3c2-c2sccc2CN3)C1` [E, (R)-1-[(4,5-dihydro-7-oxo-8-phenyl-7H-pyrido[1,2-b]thieno[2,3-d]pyridazin-10-yl)carbonyl]-3-methoxypyrrolidine], the ED50 [1] was 1.4 mg/kg.
Compound `COC1CN(C(=O)c2cc(-c3ccccc3)c(=O)n3c2-c2sccc2C(C)N3)C1` (racemic) [F, rac-1-[(4,5-dihydro-4-methyl-7-oxo-8-phenyl-7H-pyrido[1,2-b]thieno[2,3-d]pyridazin-10-yl)carbonyl]-3-methoxyazetidine] has an ED50 [1] of 3.3 mg/kg and an LD50 [2] of 3000 mg/kg.
